Blank lines part the entries; values can stand above or below the compound they belong to.
Tests used:
p38 proteins = target: T1, p38 proteins (Mus musculus, UniProt P47811); test: Degradation of p38 in Raw 264.7 macrophages (Western blot densitometry); assay type: cell-based; details: 10 μM, 24 hours
T1 construct: endogenous in cells; host or cells: RAW 264.7
Protocol: To confirm that the compounds (p38 degraders) of Preparation Examples I″′ to III″′ reduce the amount of phospho-p38 (p-p38) proteins, experiments were performed using Raw 264.7 macrophages. Since p38 MAPK alpha is activated through the process of phosphorylation of threonine 180 (Thr180) and tyrosine 182 (Tyr182) residues by MKK3, MKK6, and the like, which are upstream regulators, phosphorylation of these residues was generally detected using an antibody (3D7 rabbit monoclonal antibody from Cell Signaling, Inc.) that specifically recognizes phospho-p38 (p-p38) MAPK in which p38 MAPK alpha was activated.
Specifically, the RAW 264.7 cells were cultured in DMEM medium containing 10% fetal bovine serum (FBS), 1% penicillin, and streptomycin (100 U/mL), transferred to a 6-well plate, and after 24 hours, the p38 degraders were diluted in the DMEM culture medium and the cells were treated with 10 μM concentration thereof. After treatment, the cells were incubated in a CO2 incubator for 24 hours. Through protein immunoblotting (Western Blot), the degrading capacity of each compound against p38 and p-p38 proteins in cells was confirmed. After cell culture was completed according to the experimental conditions, the cells were collected and centrifuged at 1,800 rpm for 3 minutes. The cells in the precipitate were lysed with RIPA (25 mM Tris-HCl pH 7.6, 150 mM NaCl, 1% NP-40, 1% sodium deoxycholate, 0.1% SDS, 1× Protease Inhibitor Cocktail), 5× sample buffer was added, and then heated at 100° C. for 15 minutes. The prepared sample was electrophoresed with sodium dodecyl sulfate poly acrylamide gel electrophoresis (SDS-PAGE), and then the proteins in the gel were transferred to a PVDF membrane using Trans-Blot Turbo. The membrane was treated with a 5% bovine serum albumin (BSA) solution and blocked at room temperature for 2 hours, and then p-p38, p38, and R-actin antibodies were diluted in the 5% BSA solution to react with the membrane at 4° C. overnight. After washed with PBST (phosphate-based saline containing 0.5% Tween20) 5 times, horse radish peroxidase (HRP)-conjugated secondary antibodies were diluted in PBST to react at room temperature for 2 hours, and then washed again with a PBST solution 5 times. After enzyme-substrate reaction was carried out using a HRP substrate, a signal was measured with chemi-doc equipment, and the densitometry of bands corresponding to the p-p38 and p38 proteins detected in the Preparation Example Compounds was quantitatively analyzed. The case when the degrading capacity of each p38 degrader was reduced by less than 40% is indicated as +, the case when the degrading capacity was reduced by 40% to 70% (exclusive of 70) is indicated as ++, the case when the degrading capacity was reduced by 70% or more is indicated as +++ in Tables 24 to 26 below. As shown in the following Tables, it was confirmed that the compounds of Preparation Examples I″′ to III″′ according to the present invention have excellent degrading capacity.

Aurora A proteins = target: T2, Aurora A proteins (Homo sapiens, UniProt O14965); test: Degradation of Aurora A protein in MM.1S cell lines (Western blot densitometry); assay type: cell-based; details: for Aurora A degradation (%) at 5 µM: MM1.S, 24 h, read-out: Aurora A degrading capacity (%)
T2 construct: endogenous in cells; host or cells: MM.1S
T2 sequence (O14965 1-403): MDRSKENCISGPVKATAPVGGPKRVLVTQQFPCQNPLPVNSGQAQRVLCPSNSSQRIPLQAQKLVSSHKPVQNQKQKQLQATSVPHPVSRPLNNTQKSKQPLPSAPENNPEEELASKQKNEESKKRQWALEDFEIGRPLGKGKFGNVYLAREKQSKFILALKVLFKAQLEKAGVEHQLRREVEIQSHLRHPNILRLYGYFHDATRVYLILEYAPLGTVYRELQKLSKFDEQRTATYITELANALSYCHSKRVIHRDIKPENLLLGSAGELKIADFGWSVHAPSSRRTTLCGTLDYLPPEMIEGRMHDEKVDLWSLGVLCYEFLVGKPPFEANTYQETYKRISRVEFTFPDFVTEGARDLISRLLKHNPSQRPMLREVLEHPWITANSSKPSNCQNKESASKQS
Protocol: Specifically, the MM.1S cells were cultured in RPMI-1640 medium containing 10% fetal bovine serum (FBS), 1% penicillin, and streptomycin (100 U/mL), transferred to a 6-well plate, and after 24 hours, the Aurora A degraders were diluted in the RPMI culture medium and cells were treated with 5 μM concentration thereof. After treatment, the cells were incubated in a CO2 incubator for 24 hours. […] After cell culture was completed according to the experimental conditions, the cells were collected and centrifuged at 1,800 rpm for 3 minutes. The cells in the precipitate were lysed with RIPA (25 mM Tris-HCl pH 7.6, 150 mM NaCl, 1% NP-40, 1% sodium deoxycholate, 0.1% SDS, 1× Protease Inhibitor Cocktail), 5× sample buffer was added, and then heated at 100° C. for 15 minutes. The prepared sample was electrophoresed with sodium dodecyl sulfate poly acrylamide gel electrophoresis (SDS-PAGE), and then the proteins in the gel were transferred to a PVDF membrane using Trans-Blot Turbo. The membrane was treated with a 5% bovine serum albumin (BSA) solution and blocked at room temperature for 2 hours, and then Aurora A and R-actin antibodies were diluted in the 5% BSA solution to react with the membrane at 4° C. overnight. After washed with PBST (0.5% Tween20) 5 times, horse radish peroxidase (HRP)-conjugated secondary antibodies were diluted in PBST to react at room temperature for 2 hours, and then washed again with a PBST solution 5 times. After enzyme-substrate reaction was carried out using a HRP substrate, a signal was measured with chemi-doc equipment, and the densitometry of a band corresponding to the Aurora A protein detected in the Preparation Example Compounds was quantitatively analyzed. The case when the degrading capacity of each Aurora A degrader was reduced by less than 40% is indicated as +, the case when the degrading capacity was reduced by 40% to 70% (exclusive of 70) is indicated as ++, the case when the degrading capacity was reduced by 70% or more is indicated as +++ in Tables 20 to 23 below.

ubiquitin = target: T3, ubiquitin (Homo sapiens, UniProt P0CG47); test: Direct binding to ubiquitin: in vitro ubiquitination and intact protein analysis (UPLC-Q/TOF or MALDI-TOF); details: 10 μM, ubiquitin 1 mg/mL, E1, E2, E3 (ITCH/AIP4), ATP, 37° C., 4 hours
T3 construct: mixed with 1 mg/mL of ubiquitin
Protocol: To confirm that the compounds represented by Formulae V to VIII of the present invention directly bind to ubiquitin, in vitro ubiquitination assay was performed, and then the compounds of Preparation Examples I′ to IV″′ (BRD4 degraders) bound to ubiquitin, a BRD4 inhibitor, and ubiquitin were detected using intact protein analysis. The intact protein analysis is a method capable of measuring a compound bound to a protein by mass spectrometry without protease pretreatment. Experiments were performed using ITCH/AIP4 proteins (manufacturer: R&D System), which are E3 ligases, in order to bind ubiquitin and BRD4 degraders in vitro.
Specifically, 10 μM of each degrader was mixed with 1 mg/mL of ubiquitin, 10× buffer, 5 nM of E1, 100 nM of E2, 14 nM of E3, and 1 mM of ATP to react in a 37° C. incubator for 4 hours. To the reacted samples, acetonitrile and formic acid were added for UPLC-Q/TOF or MALDI-TOF analysis, resulting in the final concentrations of 50% acetonitrile and 0.1% formic acid, respectively. For UPLC-Q/TOF, a Micromass Q-TOF micro Synapt High-definition mass spectrometer equipped with ESI was used to perform the mass spectrometry. […] The experimental results were analyzed using TOF/TOF™ Series Explorer™ software version 4.0.

T1 sequence (P47811 whole entry): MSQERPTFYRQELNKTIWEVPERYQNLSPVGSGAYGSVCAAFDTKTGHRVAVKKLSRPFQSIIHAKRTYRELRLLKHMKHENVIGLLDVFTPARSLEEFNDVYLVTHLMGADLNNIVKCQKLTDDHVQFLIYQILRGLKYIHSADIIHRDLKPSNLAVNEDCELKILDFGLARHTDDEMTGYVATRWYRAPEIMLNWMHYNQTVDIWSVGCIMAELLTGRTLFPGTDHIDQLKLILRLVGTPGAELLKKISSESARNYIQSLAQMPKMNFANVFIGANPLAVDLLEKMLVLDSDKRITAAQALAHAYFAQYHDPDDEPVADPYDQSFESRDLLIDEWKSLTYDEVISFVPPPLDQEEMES

Structure (SMILES): Cc1ccc(C(=O)NC2CC2)cc1-c1ccc(C(=O)c2ccc(OCCOC(=O)Nc3ccc(C#CCN)cc3)cc2)cc1.Cl [1-1″′, 2-(4-(5′-(cyclopropylcarbamoyl)-2′-methyl-[1,1′-biphenyl]-4-carbonyl)phenoxy)ethyl (4-(3-aminoprop-1-yn-1-yl)phenyl)carbamate hydrochloride]
p38 degrading capacity (%) (p38 proteins): +++ (the degrading capacity was reduced by 70% or more)

Structure (SMILES): Cc1ccc(C(=O)NC2CC2)cc1-c1ccc(C(=O)c2ccc(OCCOC(=O)Nc3ccc(C#CC(N)CO)cc3)cc2)cc1.Cl (centres unmarked) [3-49″′, 2-(4-(5′-(cyclopropylcarbamoyl)-2′-methyl-[1,1′-biphenyl]-4-carbonyl)phenoxy)ethyl (4-(3-amino-4-hydroxybut-1-yn-1-yl)phenyl)carbamate hydrochloride]
p38 degrading capacity (%) (p38 proteins): +++ (the degrading capacity was reduced by 70% or more)

Structure (SMILES): Cc1ccc(C(=O)NC2CC2)cc1-c1ccc(C(=O)c2ccc(OCCOC(=O)NCCCNC(=O)c3ccc(C#CCN)o3)cc2)cc1 [4-166″′, 2-(4-(5′-(cyclopropylcarbamoyl)-2′-methyl-[1,1′-biphenyl]-4-carbonyl)phenoxy)ethyl (3-(5-(3-aminoprop-1-yn-1-yl)furan-2-carboxamido)propyl)carbamate trifluoroacetic acid]
p38 degrading capacity (%) (p38 proteins): +++ (the degrading capacity was reduced by 70% or more)

Structure (SMILES): COc1cc(Nc2ncc3c(n2)-c2ccc(Cl)cc2C(c2c(F)cccc2OC)=NC3)ccc1C(=O)NCCCCCC(=O)Nc1cccc(C#CCN)c1 [5-104″, N-(6-((3-(3-aminoprop-1-yn-1-yl)phenyl)amino)-6-oxohexyl)-4-((9-chloro-7-(2-fluoro-6-methoxyphenyl)-5H-benzo[c]pyrimido[4,5-e]azepin-2-yl)amino)-2-methoxybenzamide trifluoroacetic acid]
Aurora A degradation (%) at 5 µM (Aurora A proteins): > 70%

Structure (SMILES): COC(=O)c1ccc(NC(=O)CCCC(=O)OCCOc2ccc(C(=O)c3ccc(-c4cc(C(=O)NC5CC5)ccc4C)cc3)cc2)cc1C#CCN.Cl [5-106″′, methyl 2-(3-aminoprop-1-yn-1-yl)-4-(5-(2-(4-(5′-(cyclopropylcarbamoyl)-2′-methyl-[1,1′-biphenyl]-4-carbonyl)phenoxy)ethoxy)-5-oxopentanamido)benzoate hydrochloride]
p38 degrading capacity (%) (p38 proteins): +++ (the degrading capacity was reduced by 70% or more)

Structure (SMILES): COC(=O)c1ccc(C#CCNC(=O)c2ccc(Nc3ncc4c(n3)-c3ccc(Cl)cc3C(c3c(F)cccc3OC)=NC4)cc2OC)cc1C#CCN [5-116″, methyl 2-(3-aminoprop-1-yn-1-yl)-4-(3-(4-((9-chloro-7-(2-fluoro-6-methoxyphenyl)-5H-benzo[c]pyrimido[4,5-e]azepin-2-yl)amino)-2-methoxybenzamido)prop-1-yn-1-yl)benzoate trifluoroacetic acid]
Aurora A degradation (%) at 5 µM (Aurora A proteins): > 70%

Structure (SMILES): COC(=O)c1ccc(C#CCNC(=O)OCCOc2ccc(C(=O)c3ccc(-c4cc(C(=O)NC5CC5)ccc4C)cc3)cc2)cc1C#CCN.Cl [5-116″′, methyl 2-(3-aminoprop-1-yn-1-yl)-4-(3-(((2-(4-(5′-(cyclopropylcarbamoyl)-2′-methyl-[1,1′-biphenyl]-4-carbonyl)phenoxy)ethoxy)carbonyl)amino)prop-1-yn-1-yl)benzoate hydrochloride]
p38 degrading capacity (%) (p38 proteins): +++ (the degrading capacity was reduced by 70% or more)

Structure (SMILES): COC(=O)c1ccc(C(=O)N2CCN(C(=O)OCCOc3ccc(C(=O)c4ccc(-c5cc(C(=O)NC6CC6)ccc5C)cc4)cc3)CC2)cc1C#CCN [5-140″′, 2-(4-(5′-(cyclopropylcarbamoyl)-2′-methyl-[1,1′-biphenyl]-4-carbonyl)phenoxy)ethyl 4-(3-(3-aminoprop-1-yn-1-yl)-4-(methoxycarbonyl)benzoyl)piperazine-1-carboxylate trifluoroacetic acid]
p38 degrading capacity (%) (p38 proteins): +++ (the degrading capacity was reduced by 70% or more)

Structure (SMILES): COC(=O)c1ccc(N(C)C(=O)CCCNC(=O)c2ccc(Nc3ncc4c(n3)-c3ccc(Cl)cc3C(c3c(F)cccc3OC)=NC4)cc2OC)cc1C#CCN [5-150″, methyl 2-(3-aminoprop-1-yn-1-yl)-4-(4-(4-((9-chloro-7-(2-fluoro-6-methoxyphenyl)-5H-benzo[c]pyrimido[4,5-e]azepin-2-yl)amino)-2-methoxybenzamido)-N-methylbutanamido)benzoate trifluoroacetic acid]
Aurora A degradation (%) at 5 µM (Aurora A proteins): < 40%

Aurora A degrading capacity (Aurora A proteins; MM.1S cells, 5 μM, 24 hours, Western blot, control group): 0%
Structure (SMILES): COc1cc(Nc2ncc3c(n2)-c2ccc(Cl)cc2C(c2c(F)cccc2OC)=NC3)ccc1C(=O)O [Formula 2, reference compound]

Structure (SMILES): Cc1sc2c(c1C)C(c1ccc(Cl)cc1)=N[C@@H](CC(=O)OC(C)(C)C)c1nnc(C)n1-2 [JQ1]
molecular weight peak of ubiquitin bound to the compound (intact protein analysis, FIGS. 3A-3J) (ubiquitin): not detected

Reference: patent US20240425517A1, “NOVEL COMPOUND FOR DEGRADATION OF TARGET PROTEIN OR POLYPEPTIDE BY POLYUBIQUITINATION” (PRAZER THERAPEUTICS INC., priority 2021, published 2024)
